ChEMBL document CHEMBL3779893, “Identification of novel GLUT inhibitors” (Bioorg Med Chem Lett, 2016)

Experiments:
[1] = target: T1, Solute carrier family 2, facilitated glucose transporter member 1 (Homo sapiens, UniProt P11166); assay: Inhibition of human GLUT1 expressed in DLD1 cells assessed as ATP production co-incubated with 100 mM glucose for 16 hrs by CellTiter-Glo assay in presence of oxidative phosphorylation inhibitor rotenone; type: cell-based, DLD-1
T1 sequence (P11166 whole entry): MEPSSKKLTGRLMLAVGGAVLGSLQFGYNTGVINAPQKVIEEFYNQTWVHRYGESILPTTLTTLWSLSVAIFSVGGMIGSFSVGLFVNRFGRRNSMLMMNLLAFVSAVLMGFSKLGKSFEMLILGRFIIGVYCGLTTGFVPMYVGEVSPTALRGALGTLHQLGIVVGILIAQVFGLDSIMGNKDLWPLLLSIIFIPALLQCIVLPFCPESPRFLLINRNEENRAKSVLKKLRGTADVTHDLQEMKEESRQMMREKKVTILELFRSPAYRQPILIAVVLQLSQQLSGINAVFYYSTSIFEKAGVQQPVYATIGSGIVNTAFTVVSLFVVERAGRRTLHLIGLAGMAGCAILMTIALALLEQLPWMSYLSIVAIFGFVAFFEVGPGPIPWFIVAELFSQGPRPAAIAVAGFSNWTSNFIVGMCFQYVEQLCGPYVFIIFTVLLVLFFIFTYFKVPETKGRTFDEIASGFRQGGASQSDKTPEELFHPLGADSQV

[2] = target: T2, Solute carrier family 2, facilitated glucose transporter member 2 (Homo sapiens, UniProt P11168); assay: Inhibition of human GLUT2 expressed in CHO cells assessed as ATP production co-incubated with 30 mM fructose for 16 hrs by CellTiter-Glo assay in presence of oxidative phosphorylation inhibitor rotenone; type: cell-based
T2 sequence (P11168 whole entry): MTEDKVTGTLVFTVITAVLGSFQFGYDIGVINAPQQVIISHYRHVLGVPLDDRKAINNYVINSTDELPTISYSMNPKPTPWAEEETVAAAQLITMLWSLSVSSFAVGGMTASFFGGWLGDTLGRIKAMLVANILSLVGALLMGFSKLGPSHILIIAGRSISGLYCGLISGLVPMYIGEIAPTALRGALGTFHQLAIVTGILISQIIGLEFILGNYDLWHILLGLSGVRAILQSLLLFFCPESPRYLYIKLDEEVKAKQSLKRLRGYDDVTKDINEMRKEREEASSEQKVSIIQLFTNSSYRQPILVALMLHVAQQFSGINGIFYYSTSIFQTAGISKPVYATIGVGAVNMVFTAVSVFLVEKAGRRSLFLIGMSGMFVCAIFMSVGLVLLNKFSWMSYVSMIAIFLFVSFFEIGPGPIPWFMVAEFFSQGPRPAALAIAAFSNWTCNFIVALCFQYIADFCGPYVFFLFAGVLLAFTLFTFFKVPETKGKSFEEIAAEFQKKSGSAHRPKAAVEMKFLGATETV

[3] = target: T3, Solute carrier family 2, facilitated glucose transporter member 3 (Homo sapiens, UniProt P11169); assay: Inhibition of human GLUT3 expressed in GLUT1 knock-out DLD1 cells assessed as ATP production co-incubated with 300 mM glucose for 16 hrs by CellTiter-Glo assay in presence of oxidative phosphorylation inhibitor rotenone; type: cell-based, DLD-1
T3 sequence (P11169 whole entry): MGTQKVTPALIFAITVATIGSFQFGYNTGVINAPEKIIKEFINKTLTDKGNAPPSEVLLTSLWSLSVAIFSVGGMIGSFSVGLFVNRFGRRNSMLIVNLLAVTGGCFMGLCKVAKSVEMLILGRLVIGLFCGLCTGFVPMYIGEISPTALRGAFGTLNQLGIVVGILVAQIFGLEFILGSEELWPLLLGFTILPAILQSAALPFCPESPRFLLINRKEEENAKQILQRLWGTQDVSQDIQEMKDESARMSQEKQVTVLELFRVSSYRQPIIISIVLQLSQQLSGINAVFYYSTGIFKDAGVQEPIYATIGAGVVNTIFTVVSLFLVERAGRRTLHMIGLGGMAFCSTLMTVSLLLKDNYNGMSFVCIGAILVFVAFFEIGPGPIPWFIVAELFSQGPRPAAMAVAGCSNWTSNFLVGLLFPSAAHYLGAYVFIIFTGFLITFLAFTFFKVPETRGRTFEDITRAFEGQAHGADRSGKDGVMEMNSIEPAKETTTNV

[4] = Intrinsic clearance in rat hepatocytes; type: ADME, cell-based, Hepatocyte; conditions: read-out: CLH (converted)
[5] = Intrinsic clearance in human liver microsomes; type: ADME; conditions: read-out: CLH (converted)
[6] = Intrinsic clearance in mouse liver microsomes; type: ADME; conditions: read-out: CLH (converted)
[7] = Intrinsic clearance in human hepatocytes; type: ADME, cell-based, Hepatocyte; conditions: read-out: CLH (converted)
[8] = Apparent permeability from apical to basolateral side in human Caco2 cells at 2 uM after 2 hrs; type: ADME, cell-based; conditions: Caco-2
[9] = Efflux ratio of apparent permeability from basolateral to apical side over apical to basolateral side in human Caco2 cells; type: ADME, cell-based; conditions: Caco-2
[10] = Blood clearance in Wistar rat at 0.3 mg/kg, iv and 5 mg/kg, po; type: ADME, organism-based; conditions: whole blood
[11] = Volume of distribution at steady state in Wistar rat at 0.3 mg/kg, iv and 5 mg/kg, po; type: ADME, organism-based; conditions: in vivo, read-out: Vdss
[12] = Terminal half life in Wistar rat at 0.3 mg/kg, iv and 5 mg/kg, po; type: ADME, organism-based; conditions: in vivo, read-out: beta t1/2 (converted)
[13] = Cmax in Wistar rat at 5 mg/kg, po; type: ADME, organism-based; design: dose 5 mg/kg, route oral; conditions: in vivo
[14] = Oral bioavailability in Wistar rat at 5 mg/kg; type: ADME, organism-based; conditions: in vivo
[15] = Intrinsic clearance in rat liver microsomes; type: ADME; conditions: read-out: CLH (converted)

| IC50 [1] [nM] | IC50 [2] [nM] | IC50 [3] [nM] | CLint scaled [4] [mL/min/kg] | CLint scaled [5] [mL/min/kg] | CLint scaled [6] [mL/min/kg] | CLint scaled [7] [mL/min/kg] | Papp A→B at 2 h, 2 µM [8] [×10⁻⁶ cm/s] | efflux ratio [9] | clearance [10] [mL/min/kg] | Vd [11] [L/kg] | half-life [12] [h] | Cmax [13] [nM] | bioavailability [14] [%] | CLint scaled [15] [mL/min/kg] | Compound |
| --- | --- | --- | --- | --- | --- | --- | --- | --- | --- | --- | --- | --- | --- | --- | --- |
| 7 | 1100 | 40 | 36.7 | 8.33 | 28.3 | 13.2 | 17.5 | 0.42 | 20 | 1.9 | 2.7 | 1700 | 67 | – | COc1ccccc1N1CCN(c2ncnc3c2cnn3-c2ccccc2F)CC1 |
| 25 | > 10000 | 250 | 45 | 2.33 | 38.3 | 14 | 5.9 | 0.29 | – | – | – | – | – | 36.7 | COc1ccccc1N1CCN(c2ncnc3c2cnn3-c2ccccc2)CC1 |
| 40 | 2000 | 120 | 61.7 | 13.8 | – | – | 15.3 | 0.33 | – | – | – | – | – | – | COc1ccccc1N1CCN(c2ncnc3c2cnn3C2CCCC2)CC1 |
| 35 | > 10000 | 120 | – | 9.17 | 31.7 | – | – | – | – | – | – | – | – | – | COc1ccccc1N1CCN(c2ncnc3c2cnn3-c2cccc(F)c2)CC1 |
